Test results from patent US5804576A, “Derivatives of 5-androsten-17-ones and 5-androstan-17-ones” (Research Corporation Technologies, Inc., priority 1986, dated 1998).
“And” between values parts separate entries of the source, which are not always exact repeats. Identical values can stand only once. “Also recorded” adds a separate entry of the source. Like-named read-outs stand apart in the source and are kept apart here.

Assays:
[1] = target: T1, purified bovine adrenal G6PDH (Bos taurus, UniProt F1MMK2); assay: Inhibition of purified bovine adrenal G6PDH; format: biochemical; conditions: for inhibition at 0.1 µM: Conc. 0.1 μm; for inhibition at 0.1 µM / inhibition at 1 µM / inhibition at 10 µM: read-out: Percent Inhibition (G6PDH)
T1 construct: full-length, wild type, no tag
T1 sequence (F1MMK2 31-70): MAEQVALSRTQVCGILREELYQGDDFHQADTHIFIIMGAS
T1 sequence (F1MMK2 101-575): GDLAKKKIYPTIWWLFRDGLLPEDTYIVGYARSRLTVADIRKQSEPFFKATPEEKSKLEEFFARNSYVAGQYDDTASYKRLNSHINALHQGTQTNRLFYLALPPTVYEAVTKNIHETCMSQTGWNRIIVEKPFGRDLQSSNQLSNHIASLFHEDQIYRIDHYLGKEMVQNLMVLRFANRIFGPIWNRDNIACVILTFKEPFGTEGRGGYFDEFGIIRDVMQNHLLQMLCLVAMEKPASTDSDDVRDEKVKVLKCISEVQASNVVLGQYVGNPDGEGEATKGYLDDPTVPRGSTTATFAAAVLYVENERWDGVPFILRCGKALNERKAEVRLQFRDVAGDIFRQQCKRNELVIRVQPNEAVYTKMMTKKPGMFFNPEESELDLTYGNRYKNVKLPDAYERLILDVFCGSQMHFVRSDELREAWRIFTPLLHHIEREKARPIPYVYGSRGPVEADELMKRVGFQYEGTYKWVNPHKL
Summary of the method: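 Inhibition of purified bovine adrenal G6PDH enzyme activity, run by the published Oertel and Rebelein (1969) procedure.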

[2] = Anti-obesity test (body weight, food consumption); format: in vivo, mouse (male A/J); conditions: for mean weekly weight / mean weekly weight ± S.D.: n = 5; for mean weekly weight ± S.D.: 0.36% of diet; for weekly weight (Table 13): 0.54% in food
Summary of the method: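 Male A/J mice, 5 weeks old on arrival, housed 5 per cage at 24 °C on a 12 h light/dark cycle, were given steroid in chow from one week after arrival; dietary concentrations were varied, or 0.54% or 0.36%. Body weight and food consumption (food added minus remaining) were recorded weekly.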

rat uterus = assay: Uterotrophic test for estrogenic activity, oral; format: in vivo; conditions: for Mean Uterine Weight: 3 days, n = 6; for estrogenic activity (in words): rat uterotrophic test
Description: Uterotrophic Test for Estrogenic Activity. Compound 16 vs. DHEA and Estradiol-benzoate. Compounds Given by Oral Administration.
Twenty-two day old rats were obtained from Charles River Laboratories. Animals were used at 29 days of age. Test steroids were suspended by homogenization in sesame oil. Rats were orally intubated at 1-2 P.M. for 3 days with a test steroid in sesame oil or with sesame oil alone (control). On the 4th day the animals were killed and the uteri were removed and weighed.

[3] = system: seminal vesicles plus prostate glands; assay: Androgenic and anti-androgenic activity (seminal vesicle plus prostate weight); format: in vivo, mouse (male A/J); conditions: for Mean Seminal Vesicle plus Prostate Weight ± S.D.: 4 weeks; for androgenic / anti-androgenic effect, seminal vesicle plus prostate weight (in words): diet, male A/J mice
Protocol: Male A/J mice (5 weeks old) were obtained from the Jackson Laboratory and were housed in polycarbonate cages (5 mice/cage) in animal quarters maintained at 24°±1° C. with 12 hours of light and 12 hours of darkness each day. One week after arrival, mice were placed on a chow diet containing either 0.18% or 0.09% 16 or without steroid. Mice were weighed weekly. After 4 weeks, the mice were killed, and the seminal vesicles plus prostate glands were dissected out and weighed.
(a) Male A/J mice (5 weeks old) were obtained from the Jackson Laboratory and were housed in polycarbonate cages (5 mice/cage) in animal quarters maintained at 24°[…] C. with 12 hours of light and 12 hours of darkness each day. One week after arrival, the mice were placed on a chow diet containing one of the test compounds of the present invention at 0.36%. After 4 weeks of treatment, the above mice were killed, and the seminal vesicles and prostate glands were dissected out and weighed.

[4] = system: DMBA produced papillomas and carcinomas; conditions: topical; cited from earlier work

C[C@]12CC[C@H](O)CC1=CC[C@@H]1[C@@H]2CC[C@]2(C)C(=O)CC[C@@H]12 [DHEA, 3β-Hydroxy-5-androst-en-17-one, reference compound]
inhibition at 0.1 µM [1]: 12%
Percent Inhibition (G6PDH) ([1]; Conc. 1 μm): 17%
inhibition at 1 µM ([1]; Conc. 1 μm): 36%
Percent Inhibition (G6PDH) ([1]; Conc. 10 μm): 57%
Percent Inhibition (G6PDH) ([1]; Conc. 10 μm, listed as 1): 53%
inhibition at 10 µM ([1]; Conc. 10 μm): 51%
mean weekly weight ([2]; 0.18% of diet, week 0): 22.4 ± 1.8 grams
mean weekly weight ([2]; 0.18% of diet, week 1): 20.4 ± 1.9 grams
mean weekly weight ([2]; 0.18% of diet, week 2): 21.1 ± 0.5 grams
mean weekly weight ([2]; 0.18% of diet, week 3): 22.4 ± 0.8 grams
mean weekly weight ([2]; 0.18% of diet, week 4): 23.6 ± 1.5 grams
mean weekly weight ([2]; 0.35% of diet, week 0): 21.8 ± 2.2 grams and 22.4 ± 2.3 grams
mean weekly weight ([2]; 0.35% of diet, week 1): 20.0 ± 2.3 grams and 16.0 ± 1.6 grams
mean weekly weight ([2]; 0.35% of diet, week 2): 19.2 ± 1.8 grams and 20.2 ± 0.9 grams
mean weekly weight ([2]; 0.35% of diet, week 3): 19.6 ± 2.8 grams and 21.0 ± 0.8 grams
mean weekly weight ([2]; 0.35% of diet, week 4): 22.2 ± 2.4 grams and 22.2 ± 0.9 grams
mean weekly weight ([2]; 0.35% of diet, week 5): 21.8 ± 2.2 grams
mean weekly weight ([2]; 0.35% of diet, week 7): 23.2 ± 2.4 grams
mean weekly weight ± S.D. ([2]; week 0): 23.2 ± 1.3 grams
mean weekly weight ± S.D. ([2]; week 1): 21.8 ± 1.0 grams
mean weekly weight ± S.D. ([2]; week 2): 20.8 ± 1.0 grams
anti-weight effect (in words) ([2]; 400 mg/kg repeated (DHEA), cancer preventive dosages (19, 20)): produces an anti-weight effect
weekly weight (Table 13) ([2]; week 0): 21.2 ± 1.4
weekly weight (Table 13) ([2]; week 1): 16.8 ± 1.6
weekly weight (Table 13) ([2]; week 2): 16.7 ± 2.0
weekly weight (Table 13) ([2]; week 3): 18.8 ± 1.1
weekly weight (Table 13) ([2]; week 4): 19.0 ± 2.0
weekly weight (Table 13) ([2]; week 5): 19.6 ± 2.8
mean weekly weight ([2]; 0.7% of diet, week 0): 21.1 ± 2.8 grams and 22.0 ± 2.5 grams
mean weekly weight ([2]; 0.7% of diet, week 1): 15.2 ± 1.8 grams and 17.0 ± 1.9 grams
mean weekly weight ([2]; 0.7% of diet, week 2): 17.0 ± 2.0 grams and 17.8 ± 1.8 grams
mean weekly weight ([2]; 0.7% of diet, week 3): 17.8 ± 1.1 grams and 18.4 ± 1.8 grams
mean weekly weight ([2]; 0.7% of diet, week 4): 18.8 ± 1.1 grams and 19.2 ± 1.6 grams
mean weekly weight ([2]; 0.7% of diet, week 5): 18.2 ± 1.3 grams and 20.2 ± 1.9 grams
mean weekly weight ([2]; 0.7% of diet, week 6): 19.8 ± 2.0 grams
Anti-obesity Activity relative to DHEA ([2]; Table 14, DHEA = 1×): 1 ×
Mean Uterine Weight (rat uterus; 400 mg/kg oral): 261 ± 23 Mgs
estrogenic activity (in words) (rat uterus): significantly estrogenic
Mean Seminal Vesicle plus Prostate Weight ± S.D. ([3]; 0.36% of diet, n = 5): 6.5 ± 1.2 mg/100 gm body weight
androgenic / anti-androgenic effect, seminal vesicle plus prostate weight (in words) [3]: significantly reduced seminal vesical plus prostate gland weight
inhibition of DMBA produced papillomas and carcinomas (in words) [4]: inhibits DMBA produced papillomas and carcinomas

C[C@H]1CC[C@@]2(C)C(=CC[C@@H]3[C@@H]2CC[C@]2(C)C(=O)CC[C@@H]32)C1 [Compound 16, 3β-methyl-5-androsten-17-one]
inhibition at 0.1 µM [1]: 25%
inhibition at 1 µM ([1]; Conc. 1 μm): 40%
inhibition at 10 µM ([1]; Conc. 10 μm): 53%
Anti-obesity Activity relative to DHEA [2]: more than 2 X
mean weekly weight ([2]; 0.18% of diet, week 0): 22.6 ± 2.7 grams
mean weekly weight ([2]; 0.18% of diet, week 1): 19.8 ± 2.3 grams
mean weekly weight ([2]; 0.18% of diet, week 2): 19.4 ± 2.1 grams
mean weekly weight ([2]; 0.18% of diet, week 3): 19.4 ± 2.1 grams
mean weekly weight ([2]; 0.18% of diet, week 4): 19.6 ± 2.2 grams
mean weekly weight ([2]; 0.35% of diet, week 0): 22.0 ± 2.5 grams
mean weekly weight ([2]; 0.35% of diet, week 1): 16.8 ± 1.6 grams
mean weekly weight ([2]; 0.35% of diet, week 2): 18.2 ± 0.8 grams
mean weekly weight ([2]; 0.35% of diet, week 3): 17.2 ± 1.7 grams
mean weekly weight ([2]; 0.35% of diet, week 4): 17.0 ± 1.2 grams
mean weekly weight ± S.D. ([2]; week 0): 23.3 ± 2.5 grams
mean weekly weight ± S.D. ([2]; week 1): 18 ± 1.5 grams
mean weekly weight ± S.D. ([2]; week 2): 17.1 ± 1.6 grams
Mean Uterine Weight (rat uterus; 200 mg/kg oral): 189 ± 14 Mgs
Mean Uterine Weight (rat uterus; 400 mg/kg oral): 174 ± 20 Mgs
estrogenic activity (in words) (rat uterus): Neither compounds 16 nor 2 are estrogenic; also recorded: devoid of estrogenic activity in the rat uterotrophic test
estrogenic activity (in words) (rat uterus; listed as compound 16): without any apparent estrogenic effect
Mean Seminal Vesicle plus Prostate Weight ± S.D. ([3]; 0.09% of diet, n = 6): 4.0 ± 0.7 mg/100 gm body weight
Mean Seminal Vesicle plus Prostate Weight ± S.D. ([3]; 0.18% of diet, n = 6): 3.4 ± 0.11 mg/100 gm body weight
Mean Seminal Vesicle plus Prostate Weight ± S.D. ([3]; 0.36% of diet, n = 5): 3.0 ± 0.3 mg/100 gm body weight
androgenic / anti-androgenic effect, seminal vesicle plus prostate weight (in words) [3]: significantly reduced the weight of the seminal vesicles and prostate glands; also recorded: significantly reduced the seminal vesicle plus prostate gland weight
androgenic / anti-androgenic effect, seminal vesicle plus prostate weight (in words) ([3]; listed as Cmpd. 16): significantly reduced seminal vesicle plus prostate weight
inhibition of DMBA produced papillomas and carcinomas (in words) [4]: inhibits DMBA produced papillomas and carcinomas
